From patent US20260174780A1, “BISMUTH-THIOL COMPOSITIONS AND METHODS FOR TREATING INFLAMMATORY DISEASES” (Microbion Corporation, priority 2022, published 2026)
Entries after “also recorded” stand apart in the source; their conditions may differ.

How the values were obtained:
Assay type in all cases: cell-based
AIM2 inflammasome = assay: RT-qPCR of AIM2 inflammasome expression in THP-1 macrophages, uninfected or infected
Description: (§1) THP-1 macrophages were differentiated with 50 ng/ml PMA for 24 hours, followed by 24 hours in media prior to infection. Differentiated THP-1 macrophages were infected with M. avium or M. abscessus for 1 hour with an MOI of 5. Infected cells were washed twice, followed by 1 hour of antibiotic treatment with 200 μg/ml of amikacin to remove extracellular bacteria. After the antibiotic treatment step, cells were washed once more and BisEDT (BIZ) was added at the indicated concentrations. The treatments (see Table 2) included: (1) uninfected, (2) uninfected+range of BisEDT, (3) untreated+infected with M. avium, (4) M. avium infected+BIZ, (5) untreated+M. abscessus, and (6) M. abscessus infected+BIZ. The time points for sample preparation were 48 hours post infection. CFUs were determined as described above and RNA was collected from similar experiments.
(§2) THP-1 RNA from the cells was isolated using the Rneasy mini kit (Qiagen), followed by treatment with Dnase 1 recombinant (Roche Diagnostics) for 1 hour at 37° C. to remove contaminating genomic DNA. The DNase was inactivated with Turbo DNase-inactivation reagent (Turbo DNA-free kit, Thermo Fisher Scientific) for 2 min at 37° C. Inactivation reagent was removed via centrifugation for 1 min at 10,000×g, and RNA transferred to new collection tubes. RNA samples were stored at […] for future processing. cDNA was transcribed from host RNA using the iScript cDNA synthesis kit (Bio-Rad). The quality of cDNA was tested by PCR with Gold 360 master mix using the manufacturer's specifications (Thermo Fisher Scientific). The RT-qPCR reaction was performed using iQ SYBR Green Supermix (Bio-Rad) and an iCycler (CFX Connect Real-Time Systems, Bio-Rad) as previously described (1). Standard curves for each gene were run in each reaction and used to calculate absolute values of mRNA. Gene expression data are presented as relative expression to beta-actin. Primers (Table 3) were designed in Primer3 using sequences from GenBank (National Center for Biotechnology Information).

Hypo-InflammaSkin models = assay: Ex vivo human skin model of psoriasis (Hypo-InflammaSkin), cytokine release in culture medium; conditions: for secretion of IL-22: Day 7 (FIG. 13R); for secretion of MIP-3α: Day 7 (FIG. 13S)
Text: Background: InflammaSkin® model is a validated psoriasis-like model developed to reproduce key features of pro-Th17/Th1 inflammation associated with psoriasis. It relies on the in situ activation of resident T-cell of normal skin biopsies and their further polarization into Th17/Th1 phenotype with the supplementation of culture medium with a cocktail of pro-inflammatory cytokines.
Model production and culture: 2 HypoSkin models of 15 mm in diameter (1.76 cm^2) were produced from 1 donor and cultured with 2 mL standard HypoSkin® medium. 20 Hypo-InflammaSkin models were produced from 1 donor by inducing in sit activation and Th17/Th1 polarization of skin resident T cells with proprietary cocktail and cultured with 2 mL Hypo-InflammaSkin® culture medium. The total treatable surface area of the models was 113 mm^2, and dosing of BisEDT took this into account based on dosing of the topical treatment. Models were maintained in standard cell culture conditions for the whole culture duration at 37° C., 5% CO2 and water saturation, with appropriate culture medium renewed every day.
Treatment Groups: Model Treatment: (1) HypoSkin® untreated control; (2) Hypo-InflammaSkin® untreated control; (3) topical betamethasone (positive control); (4) topical BisEDT—2.5 mg/mL (treatment applied every day from day 0 to 6; (5) topical BisEDT—1.25 mg/mL (treatment applied every day from day 3 to 6). N=3 per treatment group, except N=5 for Hypo-InflammaSkin® and N=1 for HypoSkin®.
Topical Treatment—Betamethasone (control): 25 μL of betamethasone was topically applied onto the surface of each skin model. Topical application was performed from Day 0 to Day 6 after removal of the previous treatment residues using a cotton swab.
Topical Treatment—BisEDT: 36 μL of the test compound was topically applied onto the surface of each skin model, massaging across the entire surface area for 1 minute, using a parafilm wrapped cotton swab; the compound was left on the skin. Topical application was performed from Day 0 to Day 6 (Treatment Group 4) or Day 3 to Day 6 (Treatment Group 5). A total of 9 models were topically treated.
Culture Media—culture media was collected on Day 3 prior to treatment application and on Day 7 and frozen at −80° C. A total of 42 culture media samples were collected.
IL-22 release: IL-22 release was measured in culture media using ELISA Human IL-22 Quantikine Kit (Bio-techne, ref D2200). Only samples from control conditions 1 to 3 were analyzed to assess donor's response to T cell activation. Each sample was analyzed in duplicate.
MSD Immunoassay—cytokine release (IL-2, IL-13, IL-15, IL-17A, IL-22, TNF-α, INF-γ, MIP-1β, and […]) in the culture medium was measured using the V-PLEX Plus Human Cytokine Kit (KI5089G, MesoScale Discovery) (FIGS. 13D-13S).

NLRP3 inflammasome = assay: RT-qPCR of NLRP3 inflammasome expression in THP-1 macrophages, uninfected or infected
Description: as §1, with “After the antibiotic treatment step, cells were washed once more and BisEDT (BIZ) was added at the indicated concentrations.” left out
as §2

[1] = Day 3, compared to HypoInflammaSkin
[2] = Day 7, compared to untreated HypoInflammaSkin controls

Q: For `C1C[S][Bi]([S]CC[S][Bi]2[S]CC[S]2)[S]1` [BisEDT, 1,2-(Bis(1,3-dithia-2-bismolane)thio)ethane], which “AIM2 gene expression relative to beta-actin” value (AIM2 inflammasome; M. abscessus infected THP-1 cells + 1 μg/ml BisEDT) is on record?
A: Its value is “even greater increase of expression”.

Q: And the “AIM2 gene expression relative to beta-actin” value (AIM2 inflammasome; M. avium infected THP-1 cells + BisEDT (2, 4 μg/ml))?
A: Its value is “did not change the gene expression”.

Q: What about the “AIM2 gene expression relative to beta-actin” value (AIM2 inflammasome; uninfected THP-1 macrophages, 0.5-4 μg/ml BisEDT, 48 hours) of the same molecule?
A: Its value is “The higher the dose, the more AIM2 gene expression was reduced; also recorded: inhibits AIM2 and NLRP3 inflammasome expression”.

Q: And the “MIP-1β levels vs betamethasone” value (Hypo-InflammaSkin models)?
A: Its value is “lower than the steroid betamethasone”.

Q: What about the “reducing/preventing inflammation induced in the HypoInflammaSkin models, vs betamethasone” value (Hypo-InflammaSkin models) of the same molecule?
A: The value was “more effective than betamethasone”.

Q: What about the “secretion of IL-13” value (Hypo-InflammaSkin models; [1]) of the same molecule?
A: The value was “reduced secretion”.

Q: And the “secretion of IL-15” value (Hypo-InflammaSkin models; [1])?
A: The value was “reduced secretion”.

Q: What about the “secretion of IL-17A” value (Hypo-InflammaSkin models; [1]) of the same molecule?
A: Its value is “reduced secretion”.

Q: And the “secretion of INF-γ” value (Hypo-InflammaSkin models; [1])?
A: The value was “reduced secretion”.

Q: What about the “secretion of MIP-110” value (Hypo-InflammaSkin models; [1]) of the same molecule?
A: Its value is “reduced secretion”.

Q: What about the “secretion of TNF-α” value (Hypo-InflammaSkin models; [1]) of the same molecule?
A: Its value is “reduced secretion”.

Q: What about the IL-17A secretion (Hypo-InflammaSkin models; Day 3 and Day 7 (FIGS. 13D, 13E), compared to untreated HypoInflammaSkin) of the same molecule?
A: Its IL-17A secretion is “notable reduction”.

Q: What about the TNF-α (Hypo-InflammaSkin models; Day 3 and Day 7 (FIGS. 13F, 13G), compared to untreated HypoInflammaSkin control) of the same molecule?
A: Its TNF-α is “reduction”.

Q: And the IFNγ secretion (Hypo-InflammaSkin models; Day 3 and Day 7 (FIGS. 13H, 13I), compared to untreated HypoInflammaSkin control)?
A: Its IFNγ secretion is “reduced”.

Q: And the “secretion of MIP-1β” value (Hypo-InflammaSkin models; Day 3 and Day 7 (FIGS. 13L, 13M), compared to untreated HypoInflammaSkin)?
A: Its value is “statistically significant decrease”.

Q: And the MIP-1β level (Hypo-InflammaSkin models; Day 7)?
A: Its MIP-1β level is “two out of three replicates below LOQ”.

Q: What about the “secretion of IL-22” value (Hypo-InflammaSkin models; compared to untreated HypoInflammaSkin control, listed as Pravibismane) of the same molecule?
A: Its value is “reduced secretion”.

Q: And the “secretion of IL-22” value (Hypo-InflammaSkin models; compared to untreated HypoInflammaSkin control, listed as pravibismane)?
A: Its value is “continued to decrease”.

Q: And the “secretion of MIP-3α” value (Hypo-InflammaSkin models; compared to untreated HypoInflammaSkin, listed as Pravibismane)?
A: The value was “statistically significant decrease”.

Q: What about the “secretion of MIP-3α” value (Hypo-InflammaSkin models; compared to untreated HypoInflammaSkin, listed as pravibismane) of the same molecule?
A: Its value is “continued to decrease”.

Q: And the “secretion of IFN-γ” value (Hypo-InflammaSkin models; [2])?
A: Its value is “continued to decrease”.

Q: What about the “secretion of IL-13” value (Hypo-InflammaSkin models; [2]) of the same molecule?
A: The value was “continued to decrease”.

Q: And the “secretion of IL-15” value (Hypo-InflammaSkin models; [2])?
A: Its value is “continued to decrease”.

Q: What about the “secretion of IL-17A” value (Hypo-InflammaSkin models; [2]) of the same molecule?
A: Its value is “continued to decrease”.

Q: What about the “secretion of MIP-1β” value (Hypo-InflammaSkin models; [2]) of the same molecule?
A: Its value is “continued to decrease”.

Q: What about the “secretion of TNF-α” value (Hypo-InflammaSkin models; [2]) of the same molecule?
A: Its value is “continued to decrease”.

Q: And the IL-15 secretion (Hypo-InflammaSkin models; pravibismane (day 3), compared to untreated HypoInflammaSkin)?
A: The IL-15 secretion was “statistically significant reduction”.

Q: What about the “IL-15 secretion vs HypoSkin untreated” value (Hypo-InflammaSkin models; pravibismane treatment (day 3)) of the same molecule?
A: The value was “even lower than healthy uninflamed skin”.

Q: What about the “IL-17A levels vs positive control (betamethasone)” value (Hypo-InflammaSkin models; topical, started at day 0 or day 3) of the same molecule?
A: Its value is “even lower than positive control”.

Q: And the IL-13 secretion (Hypo-InflammaSkin models; treatment from day 0 (FIGS. 13N, 13O), compared to HypoInflammaSkin control)?
A: The IL-13 secretion was “reduced”.

Q: What about the “IFN-γ levels vs positive control (betamethasone)” value (Hypo-InflammaSkin models; treatment starting at Day 0) of the same molecule?
A: Its value is “even lower than positive control”.

Q: And the “TNF-α levels vs positive control (betamethasone)” value (Hypo-InflammaSkin models; treatment starting at Day 0)?
A: The value was “even lower than positive control”.

Q: What about the “inhibitory effect on NLRP3 expression” value (NLRP3 inflammasome; BisEDT used after the infections) of the same molecule?
A: Its value is “the inhibitory effect was not observed”.

Q: And the NLRP3 expression (NLRP3 inflammasome; M. abscessus (MAB 19977) infected cells pretreated with 0.5 μg/ml)?
A: The NLRP3 expression was “reduced NLRP3 expression”.

Q: And the NLRP3 expression (NLRP3 inflammasome; M. abscessus infected cells)?
A: Its NLRP3 expression is “remained unchanged”.

Q: What about the NLRP3 expression (NLRP3 inflammasome; M. avium (MAH 104) infected cells pre-treated with 2 μg/ml, vs M. avium only infected cells) of the same molecule?
A: The NLRP3 expression was “higher NLRP3 expression”.

Q: What about the NLRP3 expression (NLRP3 inflammasome; MAH 104 infection, 4 μg/ml treatment, vs MAH 104 infected cells) of the same molecule?
A: The NLRP3 expression was “reduced NLRP3 expression”.

Q: And the NLRP3 inhibition (NLRP3 inflammasome; NTM-infected macrophages)?
A: The NLRP3 inhibition was “even greater dose-related NLRP3 inhibition”.

Q: And the NLRP3 expression (NLRP3 inflammasome; pre-treatment with 1 μg/ml prior to MAB 19977 infection)?
A: The NLRP3 expression was “did not impact NLRP3 expression”.

Q: What about the “NLRP3 inflammasome expression relative to beta-actin” value (NLRP3 inflammasome; uninfected THP-1 cells) of the same molecule?
A: Its value is “dose-related inhibitory effect; also recorded: inhibits AIM2 and NLRP3 inflammasome expression”.
